Experimental data from paper PMC8421423, “Cellular model system to dissect the isoform-selectivity of Akt inhibitors” (Nature Communications, 2021).
Several values for one entry are separate records, joined by “and”; a condition that tells them apart may be missing. Equal values may be shown once. Read-outs that look alike come from different tables or passages of the source.

How the values were obtained:
Akt2 = Akt2 (Homo sapiens, UniProt P31751); assay: STK HTRF KinEASE activity-based assay (IC50)
Akt1 [1] = molecular target: Akt1 (Homo sapiens, UniProt P31749); assay: STK HTRF KinEASE activity-based assay (IC50); details: for Log ratio IC50 [Akt] / IC50 [Akt], Akt1 / Akt2: biochemical activity based assay, log units
Protocol: The biochemical half maximal inhibitory concentrations (IC50) were determined with the STK HTRF KinEASE assay (Cisbio) according to the manufactor’s instructions. Briefly: 5 µL Kinase solution and 2.5 µL inhibitor solution (8% DMSO in HTRF buffer) were incubated for 1 h before the reaction was started by addition of 2.5 µL starting solution containing ATP and substrate peptide. […] After reaction completion (Akt1: 60 min, Akt2: 20 min, Akt3: 15 min), 10 µL of stop solution were added. […] The quotient of both intensities were recorded at eight different inhibitor concentrations and data fit to a Hill 4-parameter equation with Quattro software suite (Quattro Research GmbH, Martinsried, Germany). Each reaction was performed in duplicates and at least three independent determinations of each IC50 were made.

Ba/F3^myr-Akt1 cells = assay: CellTiter-Glo cell viability assay; details: for Log ratio EC50 [Akt] / EC50 [Akt], Akt1 / Akt2: cell viability assay Ba/F3 myr-Akt cells, log units
parental Ba/F3 cells = assay: CellTiter-Glo cell viability assay; type: cell-based, murine
Protocol: On day 0, cells were plated into white 384-well cell culture plates (Greiner Bio-One) using a Multidrop reagent dispenser (Thermo Fisher Scientific) at cell numbers that ensure linear and optimal luminescent signal intensity (Ba/F3myr-Akt1: 600 cells/well, Ba/F3myr-Akt2: 800 cells/well, Ba/F3myr-Akt3: 800 cells/well). […] Cell viability was analyzed on day 4 using the CellTiter-Glo Assay (Promega) as per the manufacturer’s instructions. […] All experimental points were measured in duplicates for each plate and were replicated in at least three plates.

Ba/F3^myr-Akt2 cells = assay: CellTiter-Glo cell viability assay
Ba/F3^myr-Akt3 cells = assay: CellTiter-Glo cell viability assay; details: for Log ratio EC50 [Akt] / EC50 [Akt], Akt3 / Akt2: cell viability assay Ba/F3 myr-Akt cells, log units
Akt1 [2] = molecular target: T1, Akt1 (Homo sapiens, UniProt P31749, E114A/E115A/E116A); assay: ESI-MS/MS of tryptic digest (modified cysteine residues); type: binding; details: 5-fold molar excess of inhibitor
T1 construct: AKT1(2–446, E114/115/116A); His6 with TEV protease recognition site (N, cleaved yes); made in house; host or cells: Spodoptera frugiperda (Sf9)
Protocol: ESI-MS/MS samples were prepared as stated above followed by steps of reduction, alkylation, and tryptic digest. The digested samples were stage tip-purified using C18 tips and according to a protocol described elsewhere. Subsequently, samples were thawed, dissolved in 20 μL of 0.1% TFA in water, sonicated at room temperature for 15 min, and centrifuged at 15,000×g for 1 min shortly before analysis. In all, 3 μL of sample were loaded onto a pre-column cartridge and desalted for 5 min using 0.1% TFA in water as eluent at a flow rate of 30 μL/min. The samples were back-flushed from the pre-column to the nano-HPLC column during the whole analysis. Elution was performed using a gradient starting at 5% B with a final composition of 30% B after 35 min (flow rate 300 nL/min) using 0.1% formic acid in water as eluent A and 0.1% formic acid in acetonitrile as eluent B and a column temperature of 40 °C. […] During the complete gradient cycle, a typical TOP10 shot-gun proteomics method for the MS and MS/MS analysis was used. For full scan MS experiments a mass range of m/z 300–1650 was scanned with a resolution of 70000. MS/MS experiments were followed by up to 10 high energy collision dissociation (HCD) MS/MS scans with a resolution of 17,500 of the most intense at least doubly charged ions. Data evaluation was performed using MaxQuant[50]. Spectra were searched against the specific Akt sequence and a contamination database using a false discovery rate of 1% on peptide and protein level using a decoy database for determination of the false discovery rate. For database search oxidation of methionine and N-terminal acetylation of proteins, carbamidomethylation of cysteines, and artificial modification of cysteines were defined as variable modifications.

Akt3 = Akt3 (Homo sapiens, UniProt Q9Y243); assay: STK HTRF KinEASE activity-based assay (IC50)
[3] = HTRF IC50 Akt2, individual determinations, single replicates
[4] = IC50 Akt2, HTRF, ATP at KM, 1 h preincubation
[5] = HTRF IC50 Akt1, Mean, mean of replicates
[6] = HTRF IC50 Akt1, individual determinations, single replicates
[7] = IC50 Akt1, HTRF, ATP at KM, 1 h preincubation
[8] = Mus musculus, read-out: CTG BaF3myr-Akt1, Mean, mean of replicates
[9] = Mus musculus, read-out: CTG BaF3myr-Akt1, individual determinations, single replicates
[10] = read-out: CTG BaF3myr-Akt1, individual determinations, single replicates
[11] = Mus musculus, BaF3, CTG, parental BaF3 cell line, read-out: EC50 BaF3
[12] = Mus musculus, BaF3, parental cells, mean of replicates, read-out: CTG BaF3, Mean
[13] = Mus musculus, BaF3, parental cells, single replicates, read-out: CTG BaF3, individual determinations
[14] = parental cells, single replicates, read-out: CTG BaF3, individual determinations
[15] = read-out: CTG BaF3myr-Akt2, individual determinations, single replicates
[16] = Mus musculus, read-out: CTG BaF3myr-Akt3, individual determinations, single replicates
[17] = read-out: CTG BaF3myr-Akt3, individual determinations, single replicates
[18] = IC50 Akt3, HTRF, ATP at KM, 1 h preincubation

Sequence of Akt1 (Homo sapiens, UniProt P31749) (P31749 whole entry): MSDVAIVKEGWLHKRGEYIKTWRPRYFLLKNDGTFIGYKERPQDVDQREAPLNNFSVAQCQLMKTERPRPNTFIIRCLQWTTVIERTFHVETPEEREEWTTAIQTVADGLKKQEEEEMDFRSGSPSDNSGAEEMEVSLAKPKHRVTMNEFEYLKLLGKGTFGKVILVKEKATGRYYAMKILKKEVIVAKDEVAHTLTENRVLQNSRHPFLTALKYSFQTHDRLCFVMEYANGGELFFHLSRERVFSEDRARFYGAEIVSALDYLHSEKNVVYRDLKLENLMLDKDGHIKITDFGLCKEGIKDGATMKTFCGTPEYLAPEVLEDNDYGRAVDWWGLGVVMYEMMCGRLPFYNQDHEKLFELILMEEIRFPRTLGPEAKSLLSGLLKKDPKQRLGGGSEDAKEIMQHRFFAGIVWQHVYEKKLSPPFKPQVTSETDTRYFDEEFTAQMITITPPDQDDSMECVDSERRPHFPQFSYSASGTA
Sequence of Akt2 (P31751 whole entry): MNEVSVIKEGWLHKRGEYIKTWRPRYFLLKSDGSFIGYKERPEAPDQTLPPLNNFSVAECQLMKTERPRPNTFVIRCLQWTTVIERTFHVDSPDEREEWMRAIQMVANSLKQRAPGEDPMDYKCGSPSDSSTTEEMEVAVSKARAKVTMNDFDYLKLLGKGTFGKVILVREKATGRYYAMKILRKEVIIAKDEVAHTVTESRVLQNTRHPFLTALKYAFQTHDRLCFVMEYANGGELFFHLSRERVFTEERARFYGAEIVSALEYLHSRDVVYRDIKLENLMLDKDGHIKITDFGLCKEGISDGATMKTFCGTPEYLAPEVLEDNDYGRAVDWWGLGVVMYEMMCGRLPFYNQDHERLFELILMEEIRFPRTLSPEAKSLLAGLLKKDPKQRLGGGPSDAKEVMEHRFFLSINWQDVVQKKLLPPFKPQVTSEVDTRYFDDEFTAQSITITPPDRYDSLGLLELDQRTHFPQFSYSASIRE
Sequence of Akt3 (Q9Y243 whole entry): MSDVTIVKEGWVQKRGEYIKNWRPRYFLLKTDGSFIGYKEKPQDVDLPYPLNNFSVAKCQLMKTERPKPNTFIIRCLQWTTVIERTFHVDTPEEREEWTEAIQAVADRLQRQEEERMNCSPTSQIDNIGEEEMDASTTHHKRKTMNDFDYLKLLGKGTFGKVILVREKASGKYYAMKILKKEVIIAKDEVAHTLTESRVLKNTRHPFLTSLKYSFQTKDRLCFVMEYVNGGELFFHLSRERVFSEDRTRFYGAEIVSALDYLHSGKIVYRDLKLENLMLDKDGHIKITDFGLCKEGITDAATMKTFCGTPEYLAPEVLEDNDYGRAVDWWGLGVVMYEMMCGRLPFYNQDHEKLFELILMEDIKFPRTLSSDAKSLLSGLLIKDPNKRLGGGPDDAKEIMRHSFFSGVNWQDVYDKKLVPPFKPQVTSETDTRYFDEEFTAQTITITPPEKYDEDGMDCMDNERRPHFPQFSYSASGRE
T1 sequence (P31749 2-446 E114A/E115A/E116A): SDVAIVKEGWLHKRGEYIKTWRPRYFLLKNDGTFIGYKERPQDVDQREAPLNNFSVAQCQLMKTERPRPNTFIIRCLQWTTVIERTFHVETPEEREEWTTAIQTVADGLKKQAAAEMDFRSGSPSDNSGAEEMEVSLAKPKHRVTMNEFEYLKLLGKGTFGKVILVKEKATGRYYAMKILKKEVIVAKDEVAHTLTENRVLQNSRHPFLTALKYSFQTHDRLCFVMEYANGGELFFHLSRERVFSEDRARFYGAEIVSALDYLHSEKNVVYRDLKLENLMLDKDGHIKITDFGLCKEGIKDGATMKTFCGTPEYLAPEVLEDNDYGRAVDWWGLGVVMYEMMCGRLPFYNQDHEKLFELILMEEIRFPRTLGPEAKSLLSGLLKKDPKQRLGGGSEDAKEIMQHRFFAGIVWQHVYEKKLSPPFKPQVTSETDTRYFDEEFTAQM

With C=CC(=O)Nc1ccc2[nH]c(=O)n(C3CCN(Cc4ccc(-c5ncc(C(=O)NC)cc5-c5ccccc5)cc4)CC3)c2c1 [compound 6] the IC50 (Akt2; [3]) was 0.0841 µM and 0.151 µM and 0.0886 µM, the IC50 (Akt2; [4]) was 0.108 ± 0.031 µM and the “loss of activity compared to the ester version” value (Akt1 [1]; Akt1, biochemical IC50) was 4 fold. The IC50 (Akt1 [1]; [5]) was 0.112 µM, the IC50 (Akt1 [1]; [6]) was 0.113 µM and 0.133 µM and 0.0909 µM and the IC50 (Akt1 [1]; [7]) was 0.112 ± 0.021 µM. For the same compound, the “Log ratio IC50 [Akt] / IC50 [Akt], Akt1 / Akt2” value (Akt1 [1]) was 0.02, the EC50 (Ba/F3^myr-Akt1 cells; [8]) was 9.61 µM and the EC50 (Ba/F3^myr-Akt1 cells; [9]) was 7.7 µM. For the same compound, the “Log ratio EC50 [Akt] / EC50 [Akt], Akt1 / Akt2” value (Ba/F3^myr-Akt1 cells) was -0.05, the EC50 (Ba/F3^myr-Akt1 cells; [10]) was 11.7 µM and 9.47 µM and the EC50 (parental Ba/F3 cells; [11]) was greater than 30 µM. It also gave an EC50 (parental Ba/F3 cells; [12]) greater than 30 µM, an EC50 (parental Ba/F3 cells; [13]) greater than 30 µM and an EC50 (parental Ba/F3 cells; [14]) greater than 30 µM. The EC50 (Ba/F3^myr-Akt2 cells; Mus musculus, read-out: CTG BaF3myr-Akt2, Mean, mean of replicates) was 10.8 µM, the EC50 (Ba/F3^myr-Akt2 cells; Mus musculus, read-out: CTG BaF3myr-Akt2, individual determinations, single replicates) was 12.6 µM and the EC50 (Ba/F3^myr-Akt2 cells; [15]) was 7.18 µM and 12.6 µM. For the same compound, the EC50 (Ba/F3^myr-Akt3 cells; [16]) was greater than 30 µM, the “Log ratio EC50 [Akt] / EC50 [Akt], Akt3 / Akt2” value (Ba/F3^myr-Akt3 cells) was -0.38 and the EC50 (Ba/F3^myr-Akt3 cells; [17]) was 22.6 µM and 24.5 µM. For the same compound, the “modified cysteine residues in Akt1 (MS/MS)” value (Akt1 [2]) was “Cys296 and Cys310”, the IC50 (Akt3; HTRF IC50 Akt3, Mean, mean of replicates) was 5.75 µM and the IC50 (Akt3; HTRF IC50 Akt3, individual determinations, single replicates) was 5.69 µM and 3.89 µM and 7.68 µM. For the same compound, the IC50 (Akt3; [18]) was 5.75 ± 1.55 µM.
In the case of C=CC(=O)Nc1ccc2[nH]c(=O)n(C3CCN(Cc4ccc(-c5ncc(CO)cc5-c5ccccc5)cc4)CC3)c2c1 [compound 3], the IC50 (Akt2; HTRF IC50 Akt2, Mean, mean of replicates) is reported as 0.961 µM, the IC50 (Akt2; [3]) is reported as 1.02 µM and 0.724 µM and 1.14 µM and the IC50 (Akt2; [4]) is reported as 0.961 ± 0.174 µM. For the same compound, the IC50 (Akt1 [1]; [5]) was 0.184 µM, the IC50 (Akt1 [1]; [6]) was 0.133 µM and 0.103 µM and 0.189 µM and 0.31 µM and the IC50 (Akt1 [1]; [7]) was 0.186 ± 0.079 µM. The “Log ratio IC50 [Akt] / IC50 [Akt], Akt1 / Akt2” value (Akt1 [1]) was -0.71, the “EC50 BaF3myr-Akt1” value (Ba/F3^myr-Akt1 cells; CTG) was “generally inactive” and the EC50 (Ba/F3^myr-Akt1 cells; [8]) was 28.3 µM. For the same compound, the EC50 (Ba/F3^myr-Akt1 cells; [9]) was 26.6 µM, the “Log ratio EC50 [Akt] / EC50 [Akt], Akt1 / Akt2” value (Ba/F3^myr-Akt1 cells) was 0.13 and the EC50 (Ba/F3^myr-Akt1 cells; [10]) was 28.3 µM. For the same compound, the EC50 (parental Ba/F3 cells; [11]) was greater than 30 µM, the EC50 (parental Ba/F3 cells; [12]) was greater than 30 µM and the EC50 (parental Ba/F3 cells; [13]) was greater than 30 µM. For the same compound, the EC50 (parental Ba/F3 cells; [14]) was greater than 30 µM, the EC50 (Ba/F3^myr-Akt2 cells; [15]) was 21.2 µM and 12.4 µM and > 30 µM and the “EC50 BaF3myr-Akt3” value (Ba/F3^myr-Akt3 cells; CTG) was “generally inactive”. The EC50 (Ba/F3^myr-Akt3 cells; Mus musculus, read-out: CTG BaF3myr-Akt3, Mean, mean of replicates) was greater than 30 µM, the EC50 (Ba/F3^myr-Akt3 cells; [16]) was greater than 30 µM and the EC50 (Ba/F3^myr-Akt3 cells; Mus musculus, read-out: EC50 BaF3myr-Akt3, CTG) was greater than 30 µM. For the same compound, the “Log ratio EC50 [Akt] / EC50 [Akt], Akt3 / Akt2” value (Ba/F3^myr-Akt3 cells) was -0.15, the EC50 (Ba/F3^myr-Akt3 cells; [17]) was greater than 30 µM and the “modified cysteine residues in Akt1 (MS/MS)” value (Akt1 [2]) was “Cys296 and Cys310”. The IC50 (Akt3; [18]) was greater than 20 µM.
